Publication PMC10879502, “Linking ATP and allosteric sites to achieve superadditive binding with bivalent EGFR kinase inhibitors” (Communications Chemistry, 2024)
Several values for one entry are separate records, joined by “and”; a condition that tells them apart may be missing. Equal entries are not always repeated. Where two headings read alike, the source gives them in different places.

Assays:
[1] = target: T1, EGFR L858R/T790M (LRTM) kinase domain (Homo sapiens, UniProt P00533, L858R/T790M); assay: HTRF KinEASE-TK kinase activity assay; type: biochemical; conditions: for Linking coefficient E: LRTM IC50, upper limit; for activity: LRTM, read-out: percent inhibition
T1 construct: The EGFR kinase domain (residues 696–1022) was cloned into pTriEx; 6xHis (N, cleaved yes); GST (N, cleaved yes); made in house; host or cells: SF9 insect cells, baculovirus

[2] = Metabolic stability in human liver microsomes; type: in vitro ADME; conditions: up to 120 min
Protocol: Pooled liver microsomes from humans (male) were purchased from Sekisui XenoTech, LLC, Kansas City, KS, USA. Metabolic stability assays were performed in the presence of an NADPH-regenerating system consisting of 5 mM glucose-6-phosphate, 5 U/mL glucose-6-phosphate dehydrogenase, and 1 mM NADP^+. Liver microsomes (20 mg/mL), NADPH-regenerating system, and 4 mM MgCl2·6 H2O in 0.1 M TRIS-HCl-buffer (pH 7.4) were preincubated for 5 min at 37 °C and 750 rpm on a shaker. The reaction was started by adding the preheated compound at 10 mM resulting in a final concentration of 0.1 mM. The reaction was quenched at selected time points (0, 10, 20, 30, 60, and 120 min) by pipetting 100 μL of internal standard (ketoprofen) at a concentration of 150 μM in acetonitrile. The samples were vortexed for 30 s and centrifuged (21910 relative centrifugal force, 4 °C, 20 min). The supernatant was used directly for LC-MS analysis. All compound incubations were conducted at least in triplicates. Additionally, a negative control containing BSA (20 mg/mL) instead of liver microsomes and a positive control using verapamil instead of compound were performed. A limit of 1% organic solvent during incubation was not exceeded. […]

CAMK1B = target: T2, CAMK1B (Homo sapiens, UniProt Q6P2M8); assay: KINOMEscan; type: binding; conditions: 1 μM
T2 construct: purchased Eurofins DiscoverX Corporation (KINOMEscan)

CAMK2A = target: T3, CAMK2A (Homo sapiens, UniProt Q9UQM7); assay: KINOMEscan; type: binding; conditions: 1 μM
T3 construct: purchased Eurofins DiscoverX Corporation (KINOMEscan)

CDC2L2 = target: T4, CDC2L2 (Homo sapiens, UniProt Q9UQ88); assay: KINOMEscan; type: binding; conditions: 1 μM
T4 construct: purchased Eurofins DiscoverX Corporation (KINOMEscan)

CDK4-cyclinD3 = CDK4-cyclinD3 (Homo sapiens, UniProt P11802); assay: KINOMEscan; type: binding; conditions: 1 μM
CHEK2 = CHEK2 (Homo sapiens, UniProt O96017); assay: KINOMEscan; type: binding; conditions: 1 μM
EPHA1 = EPHA1 (Homo sapiens, UniProt P21709); assay: KINOMEscan; type: binding; conditions: 1 μM
Chain of EPHA1 (P21709 26-976): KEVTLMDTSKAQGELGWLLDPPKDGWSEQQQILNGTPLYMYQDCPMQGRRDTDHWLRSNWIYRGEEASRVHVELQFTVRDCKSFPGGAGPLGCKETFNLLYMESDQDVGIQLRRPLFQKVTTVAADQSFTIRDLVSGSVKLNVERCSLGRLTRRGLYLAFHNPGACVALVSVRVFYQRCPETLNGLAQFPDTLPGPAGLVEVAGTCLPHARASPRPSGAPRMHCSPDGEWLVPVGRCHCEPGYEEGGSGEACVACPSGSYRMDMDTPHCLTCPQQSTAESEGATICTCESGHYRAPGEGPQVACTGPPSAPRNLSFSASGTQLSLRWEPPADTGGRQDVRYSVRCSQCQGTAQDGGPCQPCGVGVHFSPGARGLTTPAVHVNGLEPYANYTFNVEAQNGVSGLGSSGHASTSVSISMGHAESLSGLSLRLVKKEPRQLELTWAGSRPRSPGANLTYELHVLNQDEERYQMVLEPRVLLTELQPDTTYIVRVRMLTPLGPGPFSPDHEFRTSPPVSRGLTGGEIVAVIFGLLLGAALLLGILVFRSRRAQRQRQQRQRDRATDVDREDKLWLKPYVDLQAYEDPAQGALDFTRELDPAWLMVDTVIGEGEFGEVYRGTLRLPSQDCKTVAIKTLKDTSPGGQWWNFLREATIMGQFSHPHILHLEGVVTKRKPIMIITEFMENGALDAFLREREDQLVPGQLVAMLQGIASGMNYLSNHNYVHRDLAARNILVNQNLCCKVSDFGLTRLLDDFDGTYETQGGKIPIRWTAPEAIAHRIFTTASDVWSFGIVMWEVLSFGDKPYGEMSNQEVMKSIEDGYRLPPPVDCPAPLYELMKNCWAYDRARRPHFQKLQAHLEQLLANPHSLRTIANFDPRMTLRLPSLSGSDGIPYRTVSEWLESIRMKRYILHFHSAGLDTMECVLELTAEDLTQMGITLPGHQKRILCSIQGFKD

[3] = target: T5, JAK3(JH1domain-catalytic) (Homo sapiens, UniProt P52333); assay: KINOMEscan; type: binding; conditions: 1 μM
T5 construct: JAK3(JH1domain-catalytic); purchased Eurofins DiscoverX (KINOMEscan)

MYLK4 = target: T6, MYLK4 (Homo sapiens, UniProt Q86YV6); assay: KINOMEscan; type: binding; conditions: 1 μM
T6 construct: purchased Eurofins DiscoverX Corporation
T6 sequence (Q86YV6 whole entry): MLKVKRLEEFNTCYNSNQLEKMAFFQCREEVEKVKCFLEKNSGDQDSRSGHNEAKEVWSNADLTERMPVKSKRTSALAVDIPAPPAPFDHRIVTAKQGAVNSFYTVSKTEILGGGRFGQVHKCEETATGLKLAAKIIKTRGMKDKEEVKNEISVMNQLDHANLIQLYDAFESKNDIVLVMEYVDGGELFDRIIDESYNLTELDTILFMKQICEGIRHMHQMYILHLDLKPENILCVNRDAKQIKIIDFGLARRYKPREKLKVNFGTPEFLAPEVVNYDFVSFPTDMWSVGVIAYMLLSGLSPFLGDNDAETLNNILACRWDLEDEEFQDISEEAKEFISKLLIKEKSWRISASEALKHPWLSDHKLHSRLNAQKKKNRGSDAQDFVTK

PAK7 = PAK7 (Homo sapiens, UniProt Q9P286); assay: KINOMEscan; type: binding; conditions: 1 μM
Chain of PAK7 (Q9P286 whole entry): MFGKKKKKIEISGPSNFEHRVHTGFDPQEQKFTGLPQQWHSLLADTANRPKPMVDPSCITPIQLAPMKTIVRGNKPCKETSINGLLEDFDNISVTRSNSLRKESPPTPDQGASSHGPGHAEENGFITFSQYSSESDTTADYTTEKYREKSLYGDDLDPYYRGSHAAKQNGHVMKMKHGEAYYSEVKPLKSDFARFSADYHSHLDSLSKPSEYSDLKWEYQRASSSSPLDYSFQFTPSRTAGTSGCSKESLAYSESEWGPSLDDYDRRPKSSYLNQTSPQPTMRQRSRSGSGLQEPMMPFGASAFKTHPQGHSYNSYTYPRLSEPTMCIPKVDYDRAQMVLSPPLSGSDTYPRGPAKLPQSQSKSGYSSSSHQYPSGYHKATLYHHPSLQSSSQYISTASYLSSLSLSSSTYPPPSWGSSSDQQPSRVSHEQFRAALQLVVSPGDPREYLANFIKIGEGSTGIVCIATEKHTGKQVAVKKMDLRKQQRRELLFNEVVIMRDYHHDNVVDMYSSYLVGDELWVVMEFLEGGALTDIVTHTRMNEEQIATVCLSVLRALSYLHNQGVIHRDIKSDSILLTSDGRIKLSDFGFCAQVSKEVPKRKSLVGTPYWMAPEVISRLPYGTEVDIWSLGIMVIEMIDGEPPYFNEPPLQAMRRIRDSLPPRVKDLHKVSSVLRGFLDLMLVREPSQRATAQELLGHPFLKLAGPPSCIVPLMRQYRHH

PIK3CA(E545K) = PIK3CA(E545K) (Homo sapiens, UniProt P42336, E545K); assay: KINOMEscan; type: binding; conditions: 1 μM
PIK3CA(M1043I) = PIK3CA(M1043I) (Homo sapiens, UniProt P42336, M1043I); assay: KINOMEscan; type: binding; conditions: 1 μM
PIK3CA(Q546K) = PIK3CA(Q546K) (Homo sapiens, UniProt P42336, Q546K); assay: KINOMEscan; type: binding; conditions: 1 μM
PIK3CG = PIK3CG (Homo sapiens, UniProt P48736); assay: KINOMEscan; type: binding; conditions: 1 μM
PRKCI = PRKCI (Homo sapiens, UniProt P41743); assay: KINOMEscan; type: binding; conditions: 1 μM
PRKD1 = PRKD1 (Homo sapiens, UniProt Q15139); assay: KINOMEscan; type: binding; conditions: 1 μM
Chain of PRKD1 (Q15139 whole entry): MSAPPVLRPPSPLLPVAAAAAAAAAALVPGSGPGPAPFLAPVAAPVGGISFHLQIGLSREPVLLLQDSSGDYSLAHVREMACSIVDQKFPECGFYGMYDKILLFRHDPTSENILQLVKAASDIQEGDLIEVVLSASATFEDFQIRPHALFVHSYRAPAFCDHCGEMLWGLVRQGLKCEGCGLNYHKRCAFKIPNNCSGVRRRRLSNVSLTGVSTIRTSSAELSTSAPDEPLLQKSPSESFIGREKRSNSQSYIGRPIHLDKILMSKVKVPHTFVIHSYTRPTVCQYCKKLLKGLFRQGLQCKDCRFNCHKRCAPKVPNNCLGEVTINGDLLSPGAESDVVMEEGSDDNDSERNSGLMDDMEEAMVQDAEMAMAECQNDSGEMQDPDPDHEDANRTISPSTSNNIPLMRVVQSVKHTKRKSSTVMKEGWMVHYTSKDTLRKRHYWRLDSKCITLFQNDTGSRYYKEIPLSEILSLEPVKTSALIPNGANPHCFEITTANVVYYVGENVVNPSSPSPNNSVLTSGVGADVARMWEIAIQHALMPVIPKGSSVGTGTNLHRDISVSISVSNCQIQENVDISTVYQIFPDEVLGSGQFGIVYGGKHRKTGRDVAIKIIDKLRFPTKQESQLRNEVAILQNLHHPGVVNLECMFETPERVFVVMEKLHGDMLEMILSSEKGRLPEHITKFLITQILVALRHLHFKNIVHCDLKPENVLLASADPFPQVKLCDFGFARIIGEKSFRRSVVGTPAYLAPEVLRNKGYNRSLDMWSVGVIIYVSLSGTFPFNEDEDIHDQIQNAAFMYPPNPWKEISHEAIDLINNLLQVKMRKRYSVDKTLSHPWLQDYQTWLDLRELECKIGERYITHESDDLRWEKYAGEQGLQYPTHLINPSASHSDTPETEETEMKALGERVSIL

RET(M918T) = RET(M918T) (Homo sapiens, UniProt P07949, M918T); assay: KINOMEscan; type: binding; conditions: 1 μM
Chain of RET(M918T) (P07949 29-1114 M918T): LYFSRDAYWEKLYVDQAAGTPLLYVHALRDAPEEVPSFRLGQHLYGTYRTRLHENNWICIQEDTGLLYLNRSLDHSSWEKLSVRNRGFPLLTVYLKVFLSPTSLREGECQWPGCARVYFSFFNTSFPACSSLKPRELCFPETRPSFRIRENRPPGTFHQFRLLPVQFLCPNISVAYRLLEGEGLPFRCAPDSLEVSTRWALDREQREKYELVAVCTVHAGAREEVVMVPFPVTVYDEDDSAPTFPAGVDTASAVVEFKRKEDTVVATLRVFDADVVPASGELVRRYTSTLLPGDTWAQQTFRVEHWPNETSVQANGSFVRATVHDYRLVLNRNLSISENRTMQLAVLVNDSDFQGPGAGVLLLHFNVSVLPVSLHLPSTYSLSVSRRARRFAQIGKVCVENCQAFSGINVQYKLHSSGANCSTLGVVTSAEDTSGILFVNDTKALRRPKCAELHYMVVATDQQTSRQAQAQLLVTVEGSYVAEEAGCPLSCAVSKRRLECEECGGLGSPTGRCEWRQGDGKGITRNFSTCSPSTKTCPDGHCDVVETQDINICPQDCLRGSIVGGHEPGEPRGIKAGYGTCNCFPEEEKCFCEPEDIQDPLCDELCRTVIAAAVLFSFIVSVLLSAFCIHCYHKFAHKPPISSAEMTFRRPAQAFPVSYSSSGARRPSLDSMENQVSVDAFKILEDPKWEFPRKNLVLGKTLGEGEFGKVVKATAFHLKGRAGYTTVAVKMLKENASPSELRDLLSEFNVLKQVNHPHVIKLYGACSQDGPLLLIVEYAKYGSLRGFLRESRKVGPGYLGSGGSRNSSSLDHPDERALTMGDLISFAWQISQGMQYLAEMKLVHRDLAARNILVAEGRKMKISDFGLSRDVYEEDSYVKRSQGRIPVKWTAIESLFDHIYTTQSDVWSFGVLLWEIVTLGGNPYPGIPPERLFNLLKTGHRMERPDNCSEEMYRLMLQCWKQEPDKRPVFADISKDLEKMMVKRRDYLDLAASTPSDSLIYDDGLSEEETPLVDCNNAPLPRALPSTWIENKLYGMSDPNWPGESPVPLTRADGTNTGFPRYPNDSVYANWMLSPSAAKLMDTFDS

SRMS = SRMS (Homo sapiens, UniProt Q9H3Y6); assay: KINOMEscan; type: binding; conditions: 1 μM
Chain of SRMS (Q9H3Y6 whole entry): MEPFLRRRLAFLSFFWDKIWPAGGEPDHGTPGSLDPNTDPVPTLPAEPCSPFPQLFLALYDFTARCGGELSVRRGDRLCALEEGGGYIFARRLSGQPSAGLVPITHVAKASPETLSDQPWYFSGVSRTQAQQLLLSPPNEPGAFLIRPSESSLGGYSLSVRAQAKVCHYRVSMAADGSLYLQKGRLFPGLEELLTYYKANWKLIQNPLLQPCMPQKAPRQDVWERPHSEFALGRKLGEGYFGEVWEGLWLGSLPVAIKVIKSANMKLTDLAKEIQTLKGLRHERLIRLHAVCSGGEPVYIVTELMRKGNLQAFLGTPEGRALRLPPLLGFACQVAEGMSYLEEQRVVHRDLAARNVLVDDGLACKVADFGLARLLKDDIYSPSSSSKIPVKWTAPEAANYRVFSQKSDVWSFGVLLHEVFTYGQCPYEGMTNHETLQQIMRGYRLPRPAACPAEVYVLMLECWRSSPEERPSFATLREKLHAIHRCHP

TAK1 = target: T7, TAK1 (Homo sapiens, UniProt O43318); assay: KINOMEscan; type: binding; conditions: 1 μM
T7 construct: purchased Eurofins DiscoverX Corporation

TEC = target: T8, TEC (Homo sapiens, UniProt P42680); assay: KINOMEscan; type: binding; conditions: 1 μM
T8 construct: purchased Eurofins DiscoverX Corporation

TSSK3 = target: T9, TSSK3 (Homo sapiens, UniProt Q96PN8); assay: KINOMEscan; type: binding; conditions: 1 μM
T9 construct: purchased Eurofins DiscoverX Corporation
T9 sequence (Q96PN8 whole entry): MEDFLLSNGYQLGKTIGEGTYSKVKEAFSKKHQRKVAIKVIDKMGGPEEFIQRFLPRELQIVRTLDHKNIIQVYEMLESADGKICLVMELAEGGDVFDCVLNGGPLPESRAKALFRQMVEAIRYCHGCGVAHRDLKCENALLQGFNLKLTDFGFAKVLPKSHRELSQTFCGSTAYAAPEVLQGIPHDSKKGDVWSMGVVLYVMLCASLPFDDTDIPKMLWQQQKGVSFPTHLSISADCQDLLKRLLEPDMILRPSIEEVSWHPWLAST

With `CSc1nc(-c2cccc(NC(=O)c3cccc4c3NC(=O)c3ccccc3N4)c2)c(-c2ccnc(NC(C)=O)c2)[nH]1` [Compound 2] the “Linking coefficient E” value ([1]; ATP fragment 5, allosteric fragment 10) was < 1.0 M⁻¹, the “Linking coefficient E” value ([1]; ATP fragment 6, allosteric fragment 10) was < 0. 59 M-1 and the activity ([1]; [Inhibitor] 1.3e-5 nM) was 83.4% and 90.2% and 86.8%. The activity ([1]; [Inhibitor] 3.18e-5 nM) was 73.8% and 73.1% and 84.5%, the activity ([1]; [Inhibitor] 7.78e-5 nM) was 40.1% and 41.4% and 42.9% and the activity ([1]; [Inhibitor] 0.000190441 nM, 190.4 fM) was 19.1% and 19.2%. For the same compound, the activity ([1]; [Inhibitor] 0.000465979 nM, 466 fM) was 8.04% and 10%, the activity ([1]; [Inhibitor] 0.00114018 nM, 1.14 pM) was 5.9% and 5.75% and the activity ([1]; [Inhibitor] 0.00278983 nM, 2.79 pM) was 3.92% and 5.27%. The activity ([1]; [Inhibitor] 0.00682626 nM, 6.826 pM) was 3.83% and 4.05%, the activity ([1]; [Inhibitor] 0.0167028 nM, 16.7 pM) was 2.18% and 2.36% and the IC50 ([1]; Table S1, read-out: IC50, LRTM) was 0.051 to 0.064 nM and 0.051 to 0.059 nM. For the same compound, the IC50 ([1]; enzyme 0.02 nM, ATP 100 µM, read-out: Biochemical EGFR IC50, LRTM) was 0.059 ± 0.005 nM and the “linking coefficients” value ([1]; limits estimated from LRTM IC50 values) was 0.5 to 1.0 M⁻¹.

With `C=CC(=O)Nc1ccc(OC)c(Nc2cc(-c3[nH]c(CC)nc3-c3cccc(NC(=O)c4cccc5c4NC(=O)c4ccccc4N5)c3)ccn2)c1` [Compound 4] the “metabolic stability in liver microsomes” value [2] was “metabolically stable”, the POC (CAMK1B) was 94% of control and the POC (CAMK2A) was 65% of control. For the same compound, the POC (CDC2L2) was 91% of control, the POC (CDK4-cyclinD3) was 49% of control and the POC (CHEK2) was 87% of control. The POC (EPHA1) was 100% of control, the POC [3] was 100% of control and the POC (MYLK4) was 95% of control. The POC (PAK7) was 77% of control, the POC (PIK3CA(E545K)) was 100% of control and the POC (PIK3CA(M1043I)) was 55% of control. The POC (PIK3CA(Q546K)) was 100% of control, the POC (PIK3CG) was 65% of control and the POC (PRKCI) was 100% of control. The POC (PRKD1) was 42% of control, the POC (RET(M918T)) was 99% of control and the POC (SRMS) was 61% of control. For the same compound, the POC (TAK1) was 95% of control, the POC (TEC) was 45% of control and the POC (TSSK3) was 100% of control.
